≈ marks a conversion by molar mass, not a printed value. Where two headings read alike, the source gives them in different places.
What was measured:
[1] = test system: Candida albicans; experiment: Minimal Inhibitory Concentration (MIC) assay, broth microdilution per CLSI; assay type: cell-based; conditions: Candida albicans, read-out: Minimum Inhibitory Concentrations against Yeast Isolates, Candida albicans;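 also: two read times 24 hr and 48 hr of incubation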
Procedure, shortened: (§1)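 Following CLSI procedure, compounds dissolved in DMSO on the assay day are diluted twofold and added to MOPS-buffered RPMI at pH 7.0. Saline suspensions of the yeasts, matched to 0.5 McFarland, are diluted 1:100 and inoculated, then plates incubate at 35° C for about 24-48 hr.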

[2] = test system: Candida glabrata; experiment: as above; assay type: cell-based; conditions: Nakaseomyces glabratus, read-out: Minimum Inhibitory Concentrations against Yeast Isolates, Candida glabrata;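 also: two read times 24 hr and 48 hr of incubation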
Procedure, shortened: as §1

[3] = test system: Candida parapsilosis; experiment: as above; assay type: cell-based; conditions: Lodderomyces parapsilosis, read-out: Minimum Inhibitory Concentrations against Yeast Isolates, Candida parapsilosis;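 also: two read times 24 hr and 48 hr of incubation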
Procedure, shortened: as §1

[4] = test system: C. glabrata; experiment: Checkerboard FIC assay in combination with fluconazole (MIC alone and in combination, FICI); assay type: cell-based, Candida glabrata; conditions: for FICI of combination resulting in fluconazole MIC of: 2 ug/mL / FICI of combination resulting in fluconazole MIC of: 4 ug/mL / FICI of combination resulting in fluconazole MIC of: 8 ug/mL: FICI calculated using a fluconazole MIC of 16 μg/mL; for FICI of combination resulting in fluconazole MIC of: 2 ug/mL (value in parenthesis) / FICI of combination resulting in fluconazole MIC of: 4 ug/mL (value in parenthesis) / FICI of combination resulting in fluconazole MIC of: 8 ug/mL (value in parenthesis): FICI using a fluconazole MIC of 128 μg/mL; for MIC: Nakaseomyces glabratus; for Concentration of Methylgene compound to synergize fluconazole MIC to 2 ug/mL / Concentration of Methylgene compound to synergize fluconazole MIC to 4 ug/mL / Concentration of Methylgene compound to synergize fluconazole MIC to 8 ug/mL: in combination with fluconazole; for Concentration of Methylgene compound to synergize fluconazole MIC to 2 ug/mL: fluconazole MIC lowered to 2 ug/mL; for Concentration of Methylgene compound to synergize fluconazole MIC to 4 ug/mL: fluconazole MIC lowered to 4 ug/mL; for Concentration of Methylgene compound to synergize fluconazole MIC to 8 ug/mL: fluconazole MIC lowered to 8 ug/mL
Procedure, shortened: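 C. glabrata was tested by CLSI broth microdilution checkerboard, crossing 2-fold dilutions of compound with 2-fold dilutions of fluconazole. The medium was RPMI with 0.165 M MOPS at pH 7.0, inoculated from a 0.5 McFarland suspension diluted 1:100, then incubated about 48 h at 35 °C. Single-agent MICs gave the FIC and FICI values.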

[5] = 24 hr reading (first value of cell 24 hr/48 hr)
[6] = 48 hr reading (second value of cell 24 hr/48 hr)
[7] = MIC of the example compound alone against C. glabrata in the checkerboard assay, approximately 48 hr, read-out: Methylgene MIC
[8] = test compound alone, C. glabrata, approx. 48 hr at 35° C., read-out: Compound MIC

SMILES: CC(=O)Nc1cccc(CCCCc2ccc(CC(=O)NO)cc2)c1 [Example 42, 2-(4-(4-(3-acetamidophenyl)butyl)phenyl)-N-hydroxyacetamide]
- MIC [1, 5]: > 32 µg/mL
- MIC [1, 6]: > 32 µg/mL
- MIC [2, 5]: 8 µg/mL (≈ 23.5 µM)
- MIC [2, 6]: 16 µg/mL (≈ 47 µM)
- MIC [3, 5]: > 32 µg/mL
- MIC [3, 6]: > 32 µg/mL
- FICI of combination resulting in fluconazole MIC of: 2 ug/mL ([4]; C. glabrata): 0.313
- FICI of combination resulting in fluconazole MIC of: 4 ug/mL ([4]; C. glabrata): 0.375
- FICI of combination resulting in fluconazole MIC of: 8 ug/mL ([4]; C. glabrata): 0.375
- FICI of combination resulting in fluconazole MIC of: 2 ug/mL (value in parenthesis) ([4]; C. glabrata): 0.266
- FICI of combination resulting in fluconazole MIC of: 4 ug/mL (value in parenthesis) ([4]; C. glabrata): 0.281
- FICI of combination resulting in fluconazole MIC of: 8 ug/mL (value in parenthesis) ([4]; C. glabrata): 0.188
- MIC [4, 7]: 16 µg/mL
- MIC [4, 8]: 16 µg/mL
- Multiple of compound MIC to synergize fluconazole MIC to 2 ug/mL ([4]; concentration in combination as multiple of the compound's MIC alone, fluconazole MIC 2 ug/mL): (¼x)
- Multiple of compound MIC to synergize fluconazole MIC to 4 ug/mL ([4]; concentration in combination as multiple of the compound's MIC alone, fluconazole MIC 4 ug/mL): (¼x)
- Multiple of compound MIC to synergize fluconazole MIC to 8 ug/mL ([4]; concentration in combination as multiple of the compound's MIC alone, fluconazole MIC 8 ug/mL): (⅛x)
- Concentration of Methylgene compound to synergize fluconazole MIC to 2 ug/mL ([4]; C. glabrata): 4 µg/mL
- Concentration of Methylgene compound to synergize fluconazole MIC to 4 ug/mL ([4]; C. glabrata): 4 µg/mL
- Concentration of Methylgene compound to synergize fluconazole MIC to 8 ug/mL ([4]; C. glabrata): 2 µg/mL

SMILES: CN1CCC(C(=O)Nc2cccc(CCCCc3ccc(CC(=O)NO)cc3)c2)CC1 [Example 43, N-(3-(4-(4-(2-(hydroxyamino)-2-oxoethyl)phenyl)butyl)phenyl)-1-methylpiperidine-4-carboxamide]
- MIC [1, 5]: > 64 µg/mL
- MIC [1, 6]: > 64 µg/mL
- MIC [2, 5]: 16 µg/mL (≈ 37.8 µM)
- MIC [2, 6]: 64 µg/mL (≈ 151 µM)
- MIC [3, 5]: > 64 µg/mL
- MIC [3, 6]: > 64 µg/mL
- FICI of combination resulting in fluconazole MIC of: 2 ug/mL ([4]; C. glabrata): 0.313
- FICI of combination resulting in fluconazole MIC of: 4 ug/mL ([4]; C. glabrata): 0.250
- FICI of combination resulting in fluconazole MIC of: 8 ug/mL ([4]; C. glabrata): 0.313
- FICI of combination resulting in fluconazole MIC of: 2 ug/mL (value in parenthesis) ([4]; C. glabrata): 0.266
- FICI of combination resulting in fluconazole MIC of: 4 ug/mL (value in parenthesis) ([4]; C. glabrata): 0.156
- FICI of combination resulting in fluconazole MIC of: 8 ug/mL (value in parenthesis) ([4]; C. glabrata): 0.125
- MIC [4, 7]: > 16 µg/mL
- MIC [4, 8]: > 16 µg/mL
- Concentration of Methylgene compound to synergize fluconazole MIC to 2 ug/mL ([4]; C. glabrata): 8 µg/mL
- Concentration of Methylgene compound to synergize fluconazole MIC to 4 ug/mL ([4]; C. glabrata): 4 µg/mL
- Concentration of Methylgene compound to synergize fluconazole MIC to 8 ug/mL ([4]; C. glabrata): 2 µg/mL

SMILES: CN(C)CCSCC(=O)Nc1cccc(CCCCc2ccc(CC(=O)NO)cc2)c1 [Example 44, 2-(2-(dimethylamino)ethylthio)-N-(3-(4-(4-(2-(hydroxyamino)-2-oxoethyl)phenyl)butyl)phenyl)acetamide]
- MIC [1, 5]: > 64 µg/mL
- MIC [1, 6]: > 64 µg/mL
- MIC [2, 5]: 16 µg/mL (≈ 36.1 µM)
- MIC [2, 6]: 64 µg/mL (≈ 144 µM)
- MIC [3, 5]: 64 µg/mL (≈ 144 µM)
- MIC [3, 6]: > 64 µg/mL
- FICI of combination resulting in fluconazole MIC of: 2 ug/mL ([4]; C. glabrata): 0.188
- FICI of combination resulting in fluconazole MIC of: 4 ug/mL ([4]; C. glabrata): 0.250
- FICI of combination resulting in fluconazole MIC of: 8 ug/mL ([4]; C. glabrata): 0.313
- FICI of combination resulting in fluconazole MIC of: 2 ug/mL (value in parenthesis) ([4]; C. glabrata): 0.141
- FICI of combination resulting in fluconazole MIC of: 4 ug/mL (value in parenthesis) ([4]; C. glabrata): 0.156
- FICI of combination resulting in fluconazole MIC of: 8 ug/mL (value in parenthesis) ([4]; C. glabrata): 0.125
- MIC [4, 7]: > 16 µg/mL
- MIC [4, 8]: > 16 µg/mL
- Concentration of Methylgene compound to synergize fluconazole MIC to 2 ug/mL ([4]; C. glabrata): 4 µg/mL
- Concentration of Methylgene compound to synergize fluconazole MIC to 4 ug/mL ([4]; C. glabrata): 4 µg/mL
- Concentration of Methylgene compound to synergize fluconazole MIC to 8 ug/mL ([4]; C. glabrata): 2 µg/mL

SMILES: CC(=O)Nc1ccccc1CCCCc1ccc(CC(=O)NO)cc1 [Example 45, 2-(4-(4-(2-acetamidophenyl)butyl)phenyl)-N-hydroxyacetamide]
- MIC [1, 5]: > 64 µg/mL
- MIC [1, 6]: > 64 µg/mL
- MIC [2, 5]: 32 µg/mL (≈ 94 µM)
- MIC [2, 6]: > 64 µg/mL
- MIC [3, 5]: > 64 µg/mL
- MIC [3, 6]: > 64 µg/mL
- FICI of combination resulting in fluconazole MIC of: 2 ug/mL ([4]; C. glabrata): > 1.063
- FICI of combination resulting in fluconazole MIC of: 4 ug/mL ([4]; C. glabrata): > 0.625
- FICI of combination resulting in fluconazole MIC of: 8 ug/mL ([4]; C. glabrata): > 0.750
- FICI of combination resulting in fluconazole MIC of: 2 ug/mL (value in parenthesis) ([4]; C. glabrata): > 1.016
- FICI of combination resulting in fluconazole MIC of: 4 ug/mL (value in parenthesis) ([4]; C. glabrata): > 0.531
- FICI of combination resulting in fluconazole MIC of: 8 ug/mL (value in parenthesis) ([4]; C. glabrata): > 0.563
- MIC [4, 7]: > 16 µg/mL
- MIC [4, 8]: > 16 µg/mL
- Concentration of Methylgene compound to synergize fluconazole MIC to 2 ug/mL ([4]; C. glabrata): >16 µg/mL
- Concentration of Methylgene compound to synergize fluconazole MIC to 4 ug/mL ([4]; C. glabrata): 16 µg/mL
- Concentration of Methylgene compound to synergize fluconazole MIC to 8 ug/mL ([4]; C. glabrata): 16 µg/mL
